According to US20100190755A1, “TETRACYCLINE COMPOUNDS FOR THE TREATMENT OF RHEUMATOID ARTHRITIS AND RELATED METHODS OF TREATMENT” (priority 2008, published 2010):
Values after ≈ are worked out from the molar mass of the structure shown.

tested on: S. aureus RN450; assay: Antibacterial activity MIC, Gram+ (Table 9); type: cell-based; conditions: Staphylococcus aureus, CAMHB, 35° C., approximately 18 hr
Experimental: (§1) 2 mg of each compound is dissolved in 100 μl of DMSO. The solution is then added to cation-adjusted Mueller Hinton broth (CAMHB), which results in a final compound concentration of 200 μg per ml. The tetracycline compound solutions are diluted to 50 μL volumes, with a test compound concentration of 0.098 μg/ml. Optical density (OD) determinations are made from fresh log-phase broth cultures of the test strains. Dilutions are made to achieve a final cell density of 1×10^6 CFU/ml. At OD=1, cell densities for different genera should be approximately:
(§2) 50 μl of the cell suspensions are added to each well of microtiter plates. The final cell density should be approximately 5×10^5 CFU/ml. These plates are incubated at 35° C. in an ambient air incubator for approximately 18 hr. The plates are read with a microplate reader and are visually inspected when necessary. The MIC is defined as the lowest concentration of the tetracycline compound that inhibits growth.

Question: For `CN(C)c1cc(-c2ccsc2)c(O)c2c1C[C@H]1C[C@H]3[C@H](N(C)C)C(O)=C(C(N)=O)C(=O)[C@@]3(O)C(O)=C1C2=O` [P], which MIC is on record?
Answer: The MIC was 0.5 µg/mL (≈ 0.927 µM).

Question: With `CN(C)[C@@H]1C(O)=C(C(N)=O)C(=O)[C@@]2(O)C(O)=C3C(=O)c4ccccc4C[C@H]3C[C@@H]12` [Q] as the compound, how does the MIC read?
Answer: Its MIC is 0.5 µg/mL (≈ 1.25 µM).

Question: For `CN(C)c1ccc(-c2cc(N(C)C)c3c(c2O)C(=O)C2=C(O)[C@]4(O)C(=O)C(C(N)=O)=C(O)[C@@H](N(C)C)[C@@H]4C[C@@H]2C3)cc1` [R], which MIC is on record?
Answer: Its MIC is 2 µg/mL (≈ 3.47 µM).

Question: With `CN(C)c1cc(-c2ccc(C(N)=O)cc2)c(O)c2c1C[C@H]1C[C@H]3[C@H](N(C)C)C(O)=C(C(N)=O)C(=O)[C@@]3(O)C(O)=C1C2=O` [S] as the compound, how does the MIC read?
Answer: The MIC was > 64 µg/mL.

Question: For `CN(C)c1cc(C(=O)O)c(O)c2c1C[C@H]1C[C@H]3CC(O)=C(C(N)=O)C(=O)[C@@]3(O)C(O)=C1C2=O` [U], which MIC is on record?
Answer: Its MIC is > 64 µg/mL.

Question: `CCCNC(=O)c1cc(N(C)C)c2c(c1O)C(=O)C1=C(O)[C@]3(O)C(=O)C(C(N)=O)=C(O)C[C@@H]3C[C@@H]1C2` [V] was tested. Which MIC did it give?
Answer: Its MIC is 2 µg/mL (≈ 4 µM).

Question: `CN(C)c1cc(-c2ncco2)c(O)c2c1C[C@H]1C[C@H]3CC(O)=C(C(N)=O)C(=O)[C@@]3(O)C(O)=C1C2=O` [X] was tested. Which MIC did it give?
Answer: Its MIC is 2 µg/mL (≈ 4.15 µM).

Question: How did the MIC turn out when `CN(C)c1cc(C(=O)N2CCCCC2)c(O)c2c1C[C@H]1C[C@H]3CC(O)=C(C(N)=O)C(=O)[C@@]3(O)C(O)=C1C2=O` [Y] was run?
Answer: The MIC was > 64 µg/mL.

Question: `CCO/N=C(\C)c1cc(N(C)C)c2c(c1O)C(=O)C1=C(O)[C@]3(O)C(=O)C(C(N)=O)=C(O)[C@@H](N(C)C)[C@@H]3C[C@@H]1C2` [Z] was tested. Which MIC did it give?
Answer: Its MIC is 4 µg/mL (≈ 7.37 µM).

tested on: E. coli 25922; assay: Antibacterial activity MIC, Gram- (Table 9); type: cell-based; conditions: Escherichia coli, CAMHB, 35° C., approximately 18 hr
Experimental: as §1, §2

Question: With `CN(C)c1cc(-c2ccsc2)c(O)c2c1C[C@H]1C[C@H]3[C@H](N(C)C)C(O)=C(C(N)=O)C(=O)[C@@]3(O)C(O)=C1C2=O` [P] as the compound, how does the MIC read?
Answer: The MIC was > 64 µg/mL.

Question: How did the MIC turn out when `CN(C)[C@@H]1C(O)=C(C(N)=O)C(=O)[C@@]2(O)C(O)=C3C(=O)c4ccccc4C[C@H]3C[C@@H]12` [Q] was run?
Answer: The MIC was 32 µg/mL (≈ 80.3 µM).

Question: For `CN(C)c1ccc(-c2cc(N(C)C)c3c(c2O)C(=O)C2=C(O)[C@]4(O)C(=O)C(C(N)=O)=C(O)[C@@H](N(C)C)[C@@H]4C[C@@H]2C3)cc1` [R], which MIC is on record?
Answer: The MIC was > 64 µg/mL.

Question: For `CN(C)c1cc(-c2ccc(C(N)=O)cc2)c(O)c2c1C[C@H]1C[C@H]3[C@H](N(C)C)C(O)=C(C(N)=O)C(=O)[C@@]3(O)C(O)=C1C2=O` [S], which MIC is on record?
Answer: Its MIC is > 64 µg/mL.

Question: With `CN(C)c1cc(C(=O)O)c(O)c2c1C[C@H]1C[C@H]3CC(O)=C(C(N)=O)C(=O)[C@@]3(O)C(O)=C1C2=O` [U] as the compound, how does the MIC read?
Answer: Its MIC is > 64 µg/mL.

Question: With `CCCNC(=O)c1cc(N(C)C)c2c(c1O)C(=O)C1=C(O)[C@]3(O)C(=O)C(C(N)=O)=C(O)C[C@@H]3C[C@@H]1C2` [V] as the compound, how does the MIC read?
Answer: The MIC was > 64 µg/mL.

Question: For `CN(C)c1cc(-c2ncco2)c(O)c2c1C[C@H]1C[C@H]3CC(O)=C(C(N)=O)C(=O)[C@@]3(O)C(O)=C1C2=O` [X], which MIC is on record?
Answer: Its MIC is > 64 µg/mL.

Question: With `CN(C)c1cc(C(=O)N2CCCCC2)c(O)c2c1C[C@H]1C[C@H]3CC(O)=C(C(N)=O)C(=O)[C@@]3(O)C(O)=C1C2=O` [Y] as the compound, how does the MIC read?
Answer: The MIC was > 64 µg/mL.

Question: Which MIC does the source give for `CCO/N=C(\C)c1cc(N(C)C)c2c(c1O)C(=O)C1=C(O)[C@]3(O)C(=O)C(C(N)=O)=C(O)[C@@H](N(C)C)[C@@H]3C[C@@H]1C2` [Z] here?
Answer: The MIC was > 64 µg/mL.

tested on: collagen-induced arthritis (CIA) in male DBA/1 mice; assay: CIA model, Example 3 (cumulative scores vs untreated controls); type: in vivo; conditions: Mus musculus; Dose 25 mg/kg
Experimental: The CIA model data were acquired according to the following protocol: • 1. Male DBA/1 mice were anaesthetized by i.p. injection of ketamine/xylazine (1.25 mg/ml:0.25 mg/ml, 100 μl/mouse). • 2. Anaesthetized mice were immunized intradermally at the base of the tail with 0.1 or 0.2 ml of an emulsion composed of 100 or 200 μg bovine type II collagen in Complete Freund's Adjuvant (50 μl/spot x 2 or 4 spots). • 3. At day 21 after the immunization, mice received an intradermal boost of 100 μl of an emulsion composed of 100 μg bovine type II collagen in Incomplete Freund's Adjuvant (50 μl/spot x 2 spots) • 4. After onset of disease symptoms (usually 3-4 days after boost), tetracycline derivatives were administered daily into mice via intraperitoneal or oral routes for 8 to 15 days. Methotrexate (12 mg/kg/day) or dexmethasone (4 mg/kg/day) was used as a control for inflammation suppression. • 5. The disease severity was scored daily for 8-15 days after the appearance of the symptoms. Disease severity was graded as following: • a. Visual clinical score for the presence of inflammation in the fingers/toes of the forepaws and hindpaws: • 1. Erythema and mild swelling confined to the mid-foot (tarsals) or ankle joint • 2. Erythema and mild swelling extending from the ankle to the mid-foot • 3. Erythema and moderate swelling extending from the ankle to the metatarsal joints • 4. Erythema and severe swelling encompassing the ankle, foot, and digits. • b. Clinical swelling score for the presence of paw edema in the forepaws and hindpaws: • Paw thickness was measured daily by an engineering micrometer after isofluorane inhalation or ketamine/xylazine (1.25 mg/ml:0.25 mg/ml, 100 μl/mouse) i.p. injection.
Daily scores and paw swelling measurements for each treatment group of mice were added over the total observation period to obtain a cumulative score. Cumulative scores were compared between untreated controls and treated groups to determine tetracycline-induced inhibition.

Question: Which inhibition in vivo at 25 mg/kg does the source give for `CN(C)c1cc(-c2ccsc2)c(O)c2c1C[C@H]1C[C@H]3[C@H](N(C)C)C(O)=C(C(N)=O)C(=O)[C@@]3(O)C(O)=C1C2=O` [P] here?
Answer: Its inhibition in vivo at 25 mg/kg is 34%.

Question: `CN(C)[C@@H]1C(O)=C(C(N)=O)C(=O)[C@@]2(O)C(O)=C3C(=O)c4ccccc4C[C@H]3C[C@@H]12` [Q] was tested. Which inhibition in vivo at 25 mg/kg did it give?
Answer: Its inhibition in vivo at 25 mg/kg is 28%.

Question: For `CN(C)c1ccc(-c2cc(N(C)C)c3c(c2O)C(=O)C2=C(O)[C@]4(O)C(=O)C(C(N)=O)=C(O)[C@@H](N(C)C)[C@@H]4C[C@@H]2C3)cc1` [R], which inhibition in vivo at 25 mg/kg is on record?
Answer: Its inhibition in vivo at 25 mg/kg is 32%.

Question: For `CN(C)c1cc(-c2ccc(C(N)=O)cc2)c(O)c2c1C[C@H]1C[C@H]3[C@H](N(C)C)C(O)=C(C(N)=O)C(=O)[C@@]3(O)C(O)=C1C2=O` [S], which inhibition in vivo at 25 mg/kg is on record?
Answer: Its inhibition in vivo at 25 mg/kg is 46%.

Question: For `CN(C)c1cc(C(=O)O)c(O)c2c1C[C@H]1C[C@H]3CC(O)=C(C(N)=O)C(=O)[C@@]3(O)C(O)=C1C2=O` [U], which inhibition in vivo at 25 mg/kg is on record?
Answer: Its inhibition in vivo at 25 mg/kg is 50%.

Question: For `CCCNC(=O)c1cc(N(C)C)c2c(c1O)C(=O)C1=C(O)[C@]3(O)C(=O)C(C(N)=O)=C(O)C[C@@H]3C[C@@H]1C2` [V], which inhibition in vivo at 25 mg/kg is on record?
Answer: Its inhibition in vivo at 25 mg/kg is 43%.

Question: For `CN(C)c1cc(-c2ncco2)c(O)c2c1C[C@H]1C[C@H]3CC(O)=C(C(N)=O)C(=O)[C@@]3(O)C(O)=C1C2=O` [X], which inhibition in vivo at 25 mg/kg is on record?
Answer: Its inhibition in vivo at 25 mg/kg is 40%.

Question: How did the inhibition in vivo at 25 mg/kg turn out when `CN(C)c1cc(C(=O)N2CCCCC2)c(O)c2c1C[C@H]1C[C@H]3CC(O)=C(C(N)=O)C(=O)[C@@]3(O)C(O)=C1C2=O` [Y] was run?
Answer: The inhibition in vivo at 25 mg/kg was 22%.

Question: `CCO/N=C(\C)c1cc(N(C)C)c2c(c1O)C(=O)C1=C(O)[C@]3(O)C(=O)C(C(N)=O)=C(O)[C@@H](N(C)C)[C@@H]3C[C@@H]1C2` [Z] was tested. Which inhibition in vivo at 25 mg/kg did it give?
Answer: The inhibition in vivo at 25 mg/kg was 32%.
